Measurements published in ChEMBL document CHEMBL3808287, “AXL Inhibitors in Cancer: A Medicinal Chemistry Perspective” (J Med Chem, 2016).
pIC50: −log10 of the molar value.

Experiments:
[1] = molecular target: T1, Tyrosine-protein kinase receptor UFO (Homo sapiens, UniProt P30530); test: Inhibition of AXL (unknown origin)
T1 sequence (P30530 whole entry): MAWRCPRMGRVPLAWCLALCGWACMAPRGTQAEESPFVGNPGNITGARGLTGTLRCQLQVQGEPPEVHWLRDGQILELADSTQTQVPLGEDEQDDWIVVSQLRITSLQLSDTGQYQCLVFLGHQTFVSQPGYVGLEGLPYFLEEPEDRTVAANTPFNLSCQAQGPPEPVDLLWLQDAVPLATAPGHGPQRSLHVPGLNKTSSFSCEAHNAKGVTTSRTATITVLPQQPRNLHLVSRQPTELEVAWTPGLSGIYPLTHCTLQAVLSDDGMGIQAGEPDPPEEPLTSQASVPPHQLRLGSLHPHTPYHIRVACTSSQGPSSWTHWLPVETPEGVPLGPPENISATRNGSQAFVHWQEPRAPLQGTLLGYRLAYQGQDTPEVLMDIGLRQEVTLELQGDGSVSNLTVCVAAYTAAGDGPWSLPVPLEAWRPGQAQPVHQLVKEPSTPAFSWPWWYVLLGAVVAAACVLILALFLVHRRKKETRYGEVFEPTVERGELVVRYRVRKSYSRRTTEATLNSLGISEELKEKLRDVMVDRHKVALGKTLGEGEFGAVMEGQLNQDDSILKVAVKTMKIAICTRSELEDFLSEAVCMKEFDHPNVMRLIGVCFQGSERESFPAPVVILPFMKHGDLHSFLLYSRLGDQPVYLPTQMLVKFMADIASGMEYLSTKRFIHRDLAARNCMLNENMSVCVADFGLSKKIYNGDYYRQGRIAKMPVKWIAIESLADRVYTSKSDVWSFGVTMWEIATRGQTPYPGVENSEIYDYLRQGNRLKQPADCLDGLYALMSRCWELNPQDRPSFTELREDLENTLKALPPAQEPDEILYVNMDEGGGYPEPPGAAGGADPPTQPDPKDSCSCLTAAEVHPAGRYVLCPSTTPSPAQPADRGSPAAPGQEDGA

[2] = molecular target: T1, Tyrosine-protein kinase receptor UFO; test: Inhibition of AXL (unknown origin) by cell based assay
[3] = molecular target: T1, Tyrosine-protein kinase receptor UFO; test: Inhibition of human recombinant AXL expressed in Escherichia coli BL21 infected with T7 phage by qPCR method
[4] = molecular target: Hepatocyte growth factor receptor (Homo sapiens, UniProt P08581); test: Inhibition of human recombinant MET expressed in Escherichia coli BL21 infected with T7 phage by qPCR method
[5] = molecular target: T1, Tyrosine-protein kinase receptor UFO; test: Inhibition of AXL in human GIST cells; assay type: cell-based
[6] = system: MDA-MB-231; test: Antimetastatic activity against human MDA-MB-231-luc-D3H2LN cells xenografted in NCr nu/nu mouse assessed as mouse survival at 125 mg/kg, bid administered daily for 21 days measured on day 22 by bioluminescence imaging analysis; assay type: functional
[7] = molecular target: Tyrosine-protein kinase ABL1 (Homo sapiens, UniProt P00519); test: Inhibition of human recombinant ABL by fluorescence polarization assay
[8] = molecular target: T2, Tyrosine-protein kinase receptor TYRO3 (Homo sapiens, UniProt Q06418); test: Inhibition of human recombinant TYRO3 by fluorescence polarization assay
T2 sequence (Q06418 whole entry): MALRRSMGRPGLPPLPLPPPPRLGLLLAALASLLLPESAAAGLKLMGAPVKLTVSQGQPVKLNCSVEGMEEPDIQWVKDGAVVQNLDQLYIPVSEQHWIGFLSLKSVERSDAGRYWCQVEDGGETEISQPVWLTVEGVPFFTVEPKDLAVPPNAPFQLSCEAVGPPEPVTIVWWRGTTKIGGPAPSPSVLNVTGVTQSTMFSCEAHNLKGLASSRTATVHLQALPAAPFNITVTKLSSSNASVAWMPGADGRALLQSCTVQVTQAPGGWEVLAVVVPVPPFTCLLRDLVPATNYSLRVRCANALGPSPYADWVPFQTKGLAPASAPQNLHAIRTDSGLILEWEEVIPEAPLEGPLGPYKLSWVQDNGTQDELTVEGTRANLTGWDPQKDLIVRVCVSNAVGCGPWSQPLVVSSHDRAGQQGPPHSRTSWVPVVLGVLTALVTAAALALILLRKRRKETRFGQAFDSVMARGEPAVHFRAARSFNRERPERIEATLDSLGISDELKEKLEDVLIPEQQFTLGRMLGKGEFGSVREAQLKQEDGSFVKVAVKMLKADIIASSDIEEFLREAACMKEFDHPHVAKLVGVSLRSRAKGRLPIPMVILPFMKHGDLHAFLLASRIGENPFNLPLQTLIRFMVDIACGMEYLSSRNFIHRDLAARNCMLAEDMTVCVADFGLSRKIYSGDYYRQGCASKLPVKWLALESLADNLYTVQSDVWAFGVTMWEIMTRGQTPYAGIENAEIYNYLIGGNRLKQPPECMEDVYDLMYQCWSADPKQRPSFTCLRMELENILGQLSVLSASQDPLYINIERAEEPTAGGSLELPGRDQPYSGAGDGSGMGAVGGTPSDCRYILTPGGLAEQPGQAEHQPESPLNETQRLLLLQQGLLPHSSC

[9] = molecular target: Vascular endothelial growth factor receptor 2 (Homo sapiens, UniProt P35968); test: Inhibition of VEGFR2 (unknown origin)
[10] = molecular target: T1, Tyrosine-protein kinase receptor UFO; test: Inhibition of human full length AXL after 4 hrs followed by stimulation with human recombinant Gas6 for 15 minutes by cell based assay
[11] = molecular target: T1, Tyrosine-protein kinase receptor UFO; test: Inhibition of human full length AXL by scintillation counting method in presence of 33P-gammaATP

Chain of Vascular endothelial growth factor receptor 2 (P35968 whole entry): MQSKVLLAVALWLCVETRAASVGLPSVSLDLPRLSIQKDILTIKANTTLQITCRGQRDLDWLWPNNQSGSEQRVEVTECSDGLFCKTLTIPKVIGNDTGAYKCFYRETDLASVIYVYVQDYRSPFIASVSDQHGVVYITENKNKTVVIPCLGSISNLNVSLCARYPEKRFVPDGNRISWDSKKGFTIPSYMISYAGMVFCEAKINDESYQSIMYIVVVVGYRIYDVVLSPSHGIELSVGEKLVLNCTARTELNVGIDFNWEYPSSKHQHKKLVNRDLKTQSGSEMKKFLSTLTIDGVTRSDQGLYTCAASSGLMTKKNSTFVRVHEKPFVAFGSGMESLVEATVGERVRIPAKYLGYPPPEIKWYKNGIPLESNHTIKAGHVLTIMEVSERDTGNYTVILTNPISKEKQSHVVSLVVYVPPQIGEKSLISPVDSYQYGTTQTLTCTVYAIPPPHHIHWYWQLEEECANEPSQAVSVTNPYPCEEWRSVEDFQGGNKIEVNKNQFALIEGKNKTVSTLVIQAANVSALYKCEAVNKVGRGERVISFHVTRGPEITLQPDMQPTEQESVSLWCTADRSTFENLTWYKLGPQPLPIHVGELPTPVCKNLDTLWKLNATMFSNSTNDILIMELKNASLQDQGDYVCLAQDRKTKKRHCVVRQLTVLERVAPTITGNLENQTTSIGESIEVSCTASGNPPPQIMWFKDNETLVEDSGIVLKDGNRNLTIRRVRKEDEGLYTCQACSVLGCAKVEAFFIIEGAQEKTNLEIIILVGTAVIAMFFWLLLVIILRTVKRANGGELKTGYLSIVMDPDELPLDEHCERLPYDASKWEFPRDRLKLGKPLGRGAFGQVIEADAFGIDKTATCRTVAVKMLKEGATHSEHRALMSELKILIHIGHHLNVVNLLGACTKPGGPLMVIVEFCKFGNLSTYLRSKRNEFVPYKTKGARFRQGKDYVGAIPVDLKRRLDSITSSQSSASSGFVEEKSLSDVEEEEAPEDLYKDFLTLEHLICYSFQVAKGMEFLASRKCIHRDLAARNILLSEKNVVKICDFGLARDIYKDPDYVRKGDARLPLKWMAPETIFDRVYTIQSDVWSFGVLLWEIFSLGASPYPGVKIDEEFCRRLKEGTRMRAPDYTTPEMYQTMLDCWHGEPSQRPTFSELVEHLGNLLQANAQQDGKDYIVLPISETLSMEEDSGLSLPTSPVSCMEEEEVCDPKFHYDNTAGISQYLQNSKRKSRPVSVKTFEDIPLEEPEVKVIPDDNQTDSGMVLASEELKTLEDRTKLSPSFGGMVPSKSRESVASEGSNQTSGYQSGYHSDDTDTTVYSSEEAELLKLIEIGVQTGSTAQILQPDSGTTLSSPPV
Chain of Tyrosine-protein kinase ABL1 (P00519 whole entry): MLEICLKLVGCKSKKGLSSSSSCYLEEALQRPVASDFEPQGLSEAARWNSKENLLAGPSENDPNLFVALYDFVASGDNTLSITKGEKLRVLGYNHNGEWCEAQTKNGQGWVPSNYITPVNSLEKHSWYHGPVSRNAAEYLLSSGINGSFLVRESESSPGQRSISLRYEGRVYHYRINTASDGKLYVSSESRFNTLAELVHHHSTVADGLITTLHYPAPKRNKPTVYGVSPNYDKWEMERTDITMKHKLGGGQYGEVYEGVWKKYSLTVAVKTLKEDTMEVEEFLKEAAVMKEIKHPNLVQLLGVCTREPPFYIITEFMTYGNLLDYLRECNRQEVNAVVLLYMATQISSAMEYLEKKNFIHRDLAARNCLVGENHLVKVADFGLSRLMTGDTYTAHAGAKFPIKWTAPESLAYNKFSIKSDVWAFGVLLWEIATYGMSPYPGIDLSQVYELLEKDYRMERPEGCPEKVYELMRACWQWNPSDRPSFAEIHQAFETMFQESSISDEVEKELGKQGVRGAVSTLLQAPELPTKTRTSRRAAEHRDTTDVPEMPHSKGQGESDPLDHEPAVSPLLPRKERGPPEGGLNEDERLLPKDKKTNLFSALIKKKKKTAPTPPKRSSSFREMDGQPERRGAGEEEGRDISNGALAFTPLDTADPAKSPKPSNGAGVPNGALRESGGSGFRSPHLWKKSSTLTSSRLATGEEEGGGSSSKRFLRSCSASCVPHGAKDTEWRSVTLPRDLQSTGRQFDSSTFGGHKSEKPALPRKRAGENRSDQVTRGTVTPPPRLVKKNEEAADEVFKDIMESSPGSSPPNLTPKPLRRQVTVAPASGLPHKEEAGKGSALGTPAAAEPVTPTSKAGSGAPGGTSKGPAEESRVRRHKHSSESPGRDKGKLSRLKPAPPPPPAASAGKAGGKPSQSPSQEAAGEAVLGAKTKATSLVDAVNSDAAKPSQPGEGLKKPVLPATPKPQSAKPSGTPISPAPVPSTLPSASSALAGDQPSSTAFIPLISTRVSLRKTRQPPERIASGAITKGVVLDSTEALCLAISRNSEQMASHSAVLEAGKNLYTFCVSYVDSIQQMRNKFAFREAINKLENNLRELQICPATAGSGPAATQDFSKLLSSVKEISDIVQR
Chain of Hepatocyte growth factor receptor (P08581 whole entry): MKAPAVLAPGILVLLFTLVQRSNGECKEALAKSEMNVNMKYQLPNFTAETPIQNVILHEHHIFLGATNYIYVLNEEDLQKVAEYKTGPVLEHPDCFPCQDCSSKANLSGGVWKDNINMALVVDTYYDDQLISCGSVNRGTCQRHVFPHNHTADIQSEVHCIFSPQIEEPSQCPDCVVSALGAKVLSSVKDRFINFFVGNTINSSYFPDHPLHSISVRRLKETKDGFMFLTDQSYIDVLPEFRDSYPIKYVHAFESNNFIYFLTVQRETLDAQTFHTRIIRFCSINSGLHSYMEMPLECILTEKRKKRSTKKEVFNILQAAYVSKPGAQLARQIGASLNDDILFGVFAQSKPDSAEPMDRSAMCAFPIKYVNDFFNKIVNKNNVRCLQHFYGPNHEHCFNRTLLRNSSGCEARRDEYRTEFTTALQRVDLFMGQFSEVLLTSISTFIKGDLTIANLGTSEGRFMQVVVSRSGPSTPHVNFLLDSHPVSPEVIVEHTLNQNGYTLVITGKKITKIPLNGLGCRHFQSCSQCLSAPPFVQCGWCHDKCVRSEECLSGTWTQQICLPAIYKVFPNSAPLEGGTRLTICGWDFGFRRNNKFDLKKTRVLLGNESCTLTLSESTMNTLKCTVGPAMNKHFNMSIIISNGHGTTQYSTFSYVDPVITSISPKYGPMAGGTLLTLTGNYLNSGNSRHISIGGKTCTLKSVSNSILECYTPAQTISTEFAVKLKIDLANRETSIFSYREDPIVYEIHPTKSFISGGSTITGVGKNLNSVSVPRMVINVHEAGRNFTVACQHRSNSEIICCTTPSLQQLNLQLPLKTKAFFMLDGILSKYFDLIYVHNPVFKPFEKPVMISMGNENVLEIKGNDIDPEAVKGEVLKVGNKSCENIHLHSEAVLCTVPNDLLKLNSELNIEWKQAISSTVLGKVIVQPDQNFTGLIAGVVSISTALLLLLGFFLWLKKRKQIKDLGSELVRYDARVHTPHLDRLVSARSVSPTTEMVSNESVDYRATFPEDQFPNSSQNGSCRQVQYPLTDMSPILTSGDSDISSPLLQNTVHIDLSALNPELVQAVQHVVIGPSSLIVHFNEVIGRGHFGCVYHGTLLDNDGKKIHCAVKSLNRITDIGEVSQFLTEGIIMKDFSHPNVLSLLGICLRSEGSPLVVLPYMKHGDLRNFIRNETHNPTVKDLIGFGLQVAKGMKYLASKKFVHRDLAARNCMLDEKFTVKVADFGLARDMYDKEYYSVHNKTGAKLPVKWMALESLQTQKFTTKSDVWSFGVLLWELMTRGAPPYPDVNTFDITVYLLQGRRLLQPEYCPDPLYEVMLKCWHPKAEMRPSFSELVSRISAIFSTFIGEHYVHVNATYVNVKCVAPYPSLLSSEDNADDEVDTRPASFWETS

Q: How did the pIC50 [1] turn out when `Cc1c[nH]c2nc(Nc3ccc(N4CCN(C)CC4)c(F)c3)nc(-c3cccc(CC#N)c3)c12` was run?
A: 7.24

Q: What about the pIC50 [2] of the same compound?
A: > 6.00

Q: What does the source list for `Cc1c(C(=O)Nc2ccc(Oc3ccnc4[nH]cc(-c5ccccc5)c34)c(F)c2)c(=O)n(-c2ccc(F)cc2)n1C`?
A: pIC50 [3]: 8.00; pIC50 [4]: 7.32; pIC50 [2]: > 6.30

Q: With `S=C(NCc1ccc2c(c1)OCO2)N1CCN(c2ncnc3c2oc2ccccc23)CC1` [AMUVATINIB] as the compound, how does the pIC50 [5] read?
A: > 6.00

Q: How did the survival at 125 mg/kg [6] turn out when `Nc1nc(Nc2ccc3c(c2)CC[C@@H](N2CCCC2)CC3)nn1-c1cc2c(nn1)-c1ccccc1CCC2` [BEMCENTINIB] was run?
A: > 35%

Q: And the pIC50 [7]?
A: < 6.15

Q: What about the pIC50 [8] of the same compound?
A: < 6.15

Q: With `COCCNCc1ccc(-c2cc3nccc(Oc4ccc(NC(=S)NC(=O)Cc5ccc(F)cc5)cc4F)c3s2)nc1` [GLESATINIB] as the compound, how does the pIC50 [9] read?
A: 9.00

Q: With `Cc1ccc(C(=O)Nc2ccc(Oc3cc4cnn(C)c4cc3-c3cn[nH]c3)c(F)c2)c(=O)n1-c1ccc(F)cc1` [MERESTINIB] as the compound, how does the pIC50 [10] read?
A: 8.70

Q: What about the pIC50 [11] of the same compound?
A: 7.96
